Reference: BigSolDB 2.1

Cc1cnc(NC(=O)C2=C(O)c3ccccc3S(=O)(=O)N2C)s1
solubility (mole fraction)
Conditions | 293.15 K | 298.15 K | 303.15 K | 308.15 K | 313.15 K
in DMF | 0.0117 | 0.0128 | 0.0139 | 0.0153 | 0.0163
in formamide | 0.00069 | 0.000749 | 0.000802 | 0.000872 | 0.000927
in n-methylformamide | 0.00149 | 0.00159 | 0.00169 | 0.00182 | 0.00191
